Measurements published in US20150086504A1, “POLYMERIC MICROEMULSIONS” (Janssen Pharmaceutica NV, priority 2002, published 2015).
Values after ≈ are worked out from the molar mass of the structure shown. Read-outs that look alike come from different tables or passages of the source.

Legend:
[1] = Solubility of model compounds in aqueous solutions of polymer D4.1 (mixed directly with polymeric solution; Table 4B); type: physicochemical; settings: room temperature, duplicate; for solubility at 24 h: thermodynamic from solid
Procedure: The solubility of the other model compounds in aqueous solutions of polymer D4.1 was determined by mixing the model compound directly with the polymeric solution for 24 hours at room temperature. Tested polymer concentrations were 1, 5, 10 and 20% (w/v). The obtained suspension was then filtered through a 0.45 μm PVDF membrane filter. The filtered solution was immediately diluted to allow determination of compound concentration by UV spectroscopy. (A polymer solution of the same concentration as the sample to be analysed was used as blank).

[2] = Solubility in water of model compounds (UV spectroscopy); settings: for solubility in water: mixed with water for 24 hours, UV spectroscopy, mean of triplicate; for solubility at 24 h: water, thermodynamic from solid
physchem = settings: water, thermodynamic from solid
[3] = 24 h
[4] = Pharmacokinetic parameters in plasma (LCMS) after oral administration of risperidone solutions; type: in vivo, Male Wistar rats; settings: rat plasma, active metabolite, micellar solution D4.3 10% (w/v) compared to reference solution
Procedure: Male Wistar rats (˜200 g) were treated by oral administration of vehicles of 2.5 mg/kg risperidone solubilized in three different vehicles (tartaric acid 0.625% v/v (as the reference), copolymer D4.3 1% (w/v) in water and D4.3 10% (w/v) in water). The animals were sacrificed by decapitation 2 hours after administration.
The above experiment was also performed in function of time for the reference solution and for the D4.3 10% (w/v) aqueous solution. Therefore, animals were sacrificed by decapitation at 10 minutes, 30 minutes, 1 hour, 2 hours, 4 hours, 8 hours, 16 hours and 24 hours after administration of the risperidone formulations. […] During this experiment, the usual pharmacokinetic parameters of the active metabolite following oral administration of the two risperidone solutions were determined by LCMS analysis of the plasma samples. […] This finding confirmed the results of an in vitro release study of risperidone from a micellar solution of the present invention. The in vitro release study was performed by dialysing a micellar solution of the invention containing C^14-radioactive risperidone against water and determining the radioactivity by liquid scintillation counting of samples taken from the water as a function of time.

[5] = D4.1 polymer concentration 1 w/v %
[6] = D4.1 polymer concentration 5 w/v %
[7] = D4.1 polymer concentration 10 w/v %
[8] = D4.1 polymer concentration 20 w/v %
[9] = 1% (w/v) aqueous solution of diblock copolymer D4.1, aqueous with cosolvent or surfactant or cyclodextrin, D4.1 polymer concentration 1 w/v %
[10] = 5% (w/v) aqueous solution of diblock copolymer D4.1, aqueous with cosolvent or surfactant or cyclodextrin, D4.1 polymer concentration 5 w/v %
[11] = 10% (w/v) aqueous solution of diblock copolymer D4.1, aqueous with cosolvent or surfactant or cyclodextrin, D4.1 polymer concentration 10 w/v %
[12] = 20% (w/v) aqueous solution of diblock copolymer D4.1, aqueous with cosolvent or surfactant or cyclodextrin, D4.1 polymer concentration 20 w/v %

SMILES	Solubility in aqueous solution of diblock copolymer D4.1 [1, 6] [mg/mL]	solubility at 24 h [1, 9] [µg/mL]	solubility at 24 h [1, 10] [µg/mL]	solubility at 24 h [1, 11] [µg/mL]	solubility at 24 h [1, 12] [µg/mL]	solubility at 24 h [2] [µg/mL]	solubility at 24 h (physchem) [µg/mL]	other results
COc1cc2c(cc1OC)C1=NO[C@@H](CN3CCN(C/C(C)=C/c4ccc(F)cc4)CC3)[C@@H]1CO2 (relative stereo) [3-[[4-[(2E)-3-(4-fluorophenyl)-2-methyl-2-propenyl]-1-piperazinyl]methyl]-3a,4-dihydro-7,8-dimethoxy-3H-[1]benzopyrano[4,3-c]isoxazole [(3R,3aS)-rel-(+)]]	1.010	–	–	–	–	–	–	Solubility in aqueous solution of diblock copolymer D4.1 [1, 5]: 0.200 mg/mL; Solubility in aqueous solution of diblock copolymer D4.1 [1, 7]: 1.880 mg/mL; Solubility in aqueous solution of diblock copolymer D4.1 [1, 8]: 3.860 mg/mL; solubility in water [2]: 3 µg/mL (≈ 6.23 µM)
CS(=O)(=O)O.O=c1c2c([nH]c3ccccc13)[C@@H](c1ccc3c(c1)CCO3)N(c1ccccn1)C2 [3-(2,3-dihydro-5-benzofuranyl)-1,2,3,4-tetrahydro-2-(2-pyridinyl)-9H-pyrrolo[3,4-b]quinolin-9-one, (3R) mono methanesulfonate]	9.830	–	–	–	–	–	–	Solubility in aqueous solution of diblock copolymer D4.1 [1, 5]: 4.370 mg/mL; Solubility in aqueous solution of diblock copolymer D4.1 [1, 7]: 12.380 mg/mL; Solubility in aqueous solution of diblock copolymer D4.1 [1, 8]: 13.950 mg/mL; solubility in water [2]: 190 µg/mL
O=c1c2c([nH]c3ccccc13)[C@@H](c1ccc3c(c1)CCO3)N(c1ncc(-c3ccccn3)cn1)C2 [3-(2,3-dihydro-5-benzofuranyl)-1,2,3,4-tetrahydro-2-[5-(2-pyridinyl)-2-pyrimidinyl]-9H-pyrrolo[3,4-b]quinolin-9-one, (3R)]	0.081	–	–	–	–	–	–	Solubility in aqueous solution of diblock copolymer D4.1 [1, 5]: 0.018 mg/mL; Solubility in aqueous solution of diblock copolymer D4.1 [1, 7]: 0.150 mg/mL; Solubility in aqueous solution of diblock copolymer D4.1 [1, 8]: 0.280 mg/mL; solubility in water [2]: <1 µg/mL
Cc1cc(C=CC#N)cc(C)c1Nc1ccnc(Nc2ccc(C#N)cc2)n1 [4-[[4-[[4-(2-cyanoethenyl)-2,6-dimethylphenyl]amino]-2-pyrimidinyl]amino]benzonitrile]	–	50 (≈ 136 µM)	120 (≈ 327 µM)	230 (≈ 628 µM)	440 (≈ 1200 µM)	0.02 (≈ 0.0546 µM)	–	–
Cc1cc2c(cc1-c1cc(/C=C3\SC(=O)NC3=O)ccc1OC(F)(F)F)C(C)(C)CCC2(C)C [(Z) 5-[[3-(5,6,7,8-tetrahydro-3,5,5,8,8-pentamethyl-2-naphthalenyl)-4-(trifluoromethoxy)phenyl]methylene]-2,4-thiazolidinedione]	–	34 (≈ 69.5 µM)	130 (≈ 266 µM)	350 (≈ 715 µM)	580 (≈ 1180 µM)	–	< 0.5	–
C[C@@H]1[C@H](O)[C@@H](C)/C=C/C=C/C=C/C=C/C=C/C=C/C=C/[C@H](O[C@@H]2O[C@H](C)[C@@H](O)[C@H](N)[C@@H]2O)C[C@@H]2O[C@](O)(C[C@@H](O)C[C@@H](O)[C@H](O)CC[C@@H](O)C[C@@H](O)CC(=O)O[C@H]1C)C[C@H](O)[C@H]2C(=O)O [Amphotericin B, amphotericin B]	–	–	–	–	–	–	0.1 (≈ 0.108 µM)	–
COc1ccc2c(c1)c(CC(=O)O)c(C)n2C(=O)c1ccc(Cl)cc1 [Indomethacin, indomethacin]	–	–	–	–	–	–	10 (≈ 27.9 µM)	solubility in water [3]: 0.010 mg/mL (≈ 27.9 µM)
CC(=O)N1CCN(c2ccc(OCC3COC(Cn4ccnc4)(c4ccc(Cl)cc4Cl)O3)cc2)CC1 (stereo not shown) [Ketoconazole, ketoconazole]	–	–	–	–	–	10 (≈ 18.8 µM)	–	–
Nc1nc(Nc2ccc(S(N)(=O)=O)cc2)nn1C(=O)c1c(F)cccc1F [N3-[4-(aminosulfonyl)phenyl]-1-(2,6-difluorobenzoyl)-1H-1,2,4-triazole-3,5-diamine]	–	530 (≈ 1340 µM)	2710 (≈ 6870 µM)	5760 (≈ 14600 µM)	13900 (≈ 35200 µM)	–	15 (≈ 38 µM)	–
CC(=O)NC[C@H]1CN(c2ccc(N3Cc4cn(C)nc4C3)c(F)c2)C(=O)O1 [N-[[(5S)-3-[4-(2,6-dihydro-2-methylpyrrolo[3,4-c]pyrazol-5(4H)-yl)-3-fluorophenyl]-2-oxo-5-oxazolidinyl]methyl]-acetamide]	–	20 (≈ 53.6 µM)	60 (≈ 161 µM)	100 (≈ 268 µM)	190 (≈ 509 µM)	16 (≈ 42.9 µM)	–	–
Cc1nc2n(c(=O)c1CCN1CCC(c3noc4cc(F)ccc34)CC1)CCCC2 [Risperidone, risperidone]	–	–	–	–	–	–	60 (≈ 146 µM)	AUC [4]: slightly higher; Cmax [4]: lower; half-life [4]: longer
Cc1cc(C)c(Nc2ccnc(Nc3ccc(C#N)cc3)n2)c(C)c1 [TMC 120, 4-[[4-[(2,4,6-trimethylphenyl)amino]-2-pyrimidinyl]amino]benzonitrile]	–	–	–	–	–	< 1	–	–
Cc1cc(C#N)cc(C)c1Oc1nc(Nc2ccc(C#N)cc2)nc(N)c1Br [TMC 125, 4-[[6-amino-5-bromo-2-[(4-cyanophenyl)amino]-4-pyrimidinyl]oxy]-3,5-dimethylbenzonitrile]	0.3	60 (≈ 138 µM)	–	520 (≈ 1190 µM)	870 (≈ 2000 µM)	< 1	–	–
